Usually melting point stands for the temperature of the solid-liquid transition. Usually IC50 stands for the concentration needed to halve the response being measured.

This note sets out measurements from patent publication US7932254B2, “Pyrrolopyrazine kinase inhibitors” (Roche Palo Alto, priority 2008, dated 2011).

SMILES strings stand for the structures.

Tested on in one data set: not given
Test: not given
Conditions: not given
`CN1CCOc2cc(-c3cnc4[nH]cc(C(=O)C(C)(C)C)c4n3)ccc21` [Compound I-3, 2,2-Dimethyl-1-[2-(4-methyl-3,4-dihydro-2H-benzo[1,4]oxazin-7-yl)-5H-pyrrolo[2,3-b]pyrazin-7-yl]-propan-1-one] gave a melting point of 233 to 234 °C.

As for `CC(C)(C)C(=O)c1c[nH]c2ncc(-c3ccc4c(c3)NC(=O)C(C)(C)O4)nc12` [Compound I-7, 6-[7-(2,2-Dimethyl-propionyl)-5H-pyrrolo[2,3-b]pyrazin-2-yl]-2,2-dimethyl-4H-benzo[1,4]oxazin-3-one], the melting point is above 300 °C.

`CN1CCOc2ccc(-c3cnc4[nH]cc(C(=O)C(C)(C)C)c4n3)cc21` [Compound I-8, 2,2-Dimethyl-1-[2-(4-methyl-3,4-dihydro-2H-benzo[1,4]oxazin-6-yl)-5H-pyrrolo[2,3-b]pyrazin-7-yl]-propan-1-one] yielded a melting point of 255 to 265 °C.

`CC(C)(C)C(=O)c1c[nH]c2ncc(-c3ccc4c(c3)NC(=O)CO4)nc12` [Compound I-9, 6-[7-(2,2-Dimethyl-propionyl)-5H-pyrrolo[2,3-b]pyrazin-2-yl]-4H-benzo[1,4]oxazin-3-one] yielded a melting point above 350 °C.

As for `CN1C(=O)COc2ccc(-c3cnc4[nH]cc(C(=O)C(C)(C)C)c4n3)cc21` [Compound I-10, 6-[7-(2,2-Dimethyl-propionyl)-5H-pyrrolo[2,3-b]pyrazin-2-yl]-4-methyl-4H-benzo[1,4]oxazin-3-one], the melting point was 277 to 278 °C.

In the case of `CC(C)(C)C(=O)c1c[nH]c2ncc(-c3cc(NS(=O)(=O)c4ccc(N)cc4)c4cc[nH]c4c3)nc12` [Compound I-19, 4-Amino-N-{6-[7-(2,2-dimethyl-propionyl)-5H-pyrrolo[2,3-b]pyrazin-2-yl]-1H-indol-4-yl}-benzenesulfonamide], the melting point lay within 285 to 292 °C.

Molecule `CC1(C(=O)c2c[nH]c3ncc(-c4ccc5c(c4)NC(=O)C(C)(C)O5)nc23)CCCCC1` [Compound I-21, 2,2-Dimethyl-6-[7-(1-methyl-cyclohexanecarbonyl)-5H-pyrrolo[2,3-b]pyrazin-2-yl]-4H-benzo[1,4]oxazin-3-one] came in with a melting point above 300 °C.

The molecule `CC(C)(C)C(=O)c1c[nH]c2ncc(-c3ccc4c(c3)SCC(=O)N4)nc12` [Compound I-22, 7-[7-(2,2-Dimethyl-propionyl)-5H-pyrrolo[2,3-b]pyrazin-2-yl]-4H-benzo[1,4]thiazin-3-one] had a melting point above 300 °C.

`CC(C)(C)C(=O)c1c[nH]c2ncc(-c3cc(NS(C)(=O)=O)c4cc[nH]c4c3)nc12` [Compound I-26, N-{6-[7-(2,2-Dimethyl-propionyl)-5H-pyrrolo[2,3-b]pyrazin-2-yl]-1H-indol-4-yl}-methanesulfonamide]: the melting point was above 300 °C.

For the molecule `CC(C)(C)C(=O)c1c[nH]c2ncc(-c3cc(NS(=O)(=O)c4ccccc4)c4cc[nH]c4c3)nc12` [Compound I-27, N-{6-[7-(2,2-Dimethyl-propionyl)-5H-pyrrolo[2,3-b]pyrazin-2-yl]-1H-indol-4-yl}-benzenesulfonamide], the melting point lay in the range of 275 to 285 °C.

In turn, `CC(C)(C)C(=O)c1c[nH]c2ncc(-c3cc(NS(=O)(=O)c4ccc(Cl)cc4)c4cc[nH]c4c3)nc12` [Compound I-33, 4-Chloro-N-{6-[7-(2,2-dimethyl-propionyl)-5H-pyrrolo[2,3-b]pyrazin-2-yl]-1H-indol-4-yl}-benzenesulfonamide] returned a melting point of 264 to 266 °C.

For `CC(C)(C)C(=O)c1c[nH]c2ncc(-c3cc(NS(=O)(=O)c4ccc(F)cc4)c4cc[nH]c4c3)nc12` [Compound I-34, N-{6-[7-(2,2-Dimethyl-propionyl)-5H-pyrrolo[2,3-b]pyrazin-2-yl]-1H-indol-4-yl}-4-fluoro-benzenesulfonamide], the melting point was 295 to 297 °C.

Molecule `COc1ccc(S(=O)(=O)Nc2cc(-c3cnc4[nH]cc(C(=O)C(C)(C)C)c4n3)cc3[nH]ccc23)cc1` [Compound I-35, N-{6-[7-(2,2-Dimethyl-propionyl)-5H-pyrrolo[2,3-b]pyrazin-2-yl]-1H-indol-4-yl}-4-methoxy-benzenesulfonamide] returned a melting point of 231 to 233 °C.

Regarding `CC(C)(C)C(=O)c1c[nH]c2ncc(-c3cc(NS(=O)(=O)c4cccnc4)c4cc[nH]c4c3)nc12` [Compound I-37, Pyridine-3-sulfonic acid {6-[7-(2,2-dimethyl-propionyl)-5H-pyrrolo[2,3-b]pyrazin-2-yl]-1H-indol-4-yl}-amide], the melting point lay within 305 to 307 °C.

`CN1CCOc2cc(-c3cnc4[nH]cc(C(=O)C5(C)CCCCC5)c4n3)ccc21` [Compound I-39, (1-Methyl-cyclohexyl)-[2-(4-methyl-3,4-dihydro-2H-benzo[1,4]oxazin-7-yl)-5H-pyrrolo[2,3-b]pyrazin-7-yl]-methanone] gave a melting point of 243 to 244 °C.

With `CC(C)(C)C(=O)c1c[nH]c2ncc(-c3ccc4c(ccn4Cc4ccccn4)c3)nc12` [Compound I-46, 2,2-Dimethyl-1-[2-(1-pyridin-2-ylmethyl-1H-indol-5-yl)-5H-pyrrolo[2,3-b]pyrazin-7-yl]-propan-1-one], the melting point fell in the range of 194 to 196 °C.

In turn, `CC(C)(C)C(=O)c1c[nH]c2ncc(-c3ccc4c(ccn4Cc4cccnc4)c3)nc12` [Compound I-48, 2,2-Dimethyl-1-[2-(1-pyridin-3-ylmethyl-1H-indol-5-yl)-5H-pyrrolo[2,3-b]pyrazin-7-yl]-propan-1-one] yielded a melting point of 170 to 171 °C.

Regarding `CC(C)(C)C(=O)c1c[nH]c2ncc(-c3ccc4c(ccn4Cc4ccncc4)c3)nc12` [Compound I-49, 2,2-Dimethyl-1-[2-(1-pyridin-4-ylmethyl-1H-indol-5-yl)-5H-pyrrolo[2,3-b]pyrazin-7-yl]-propan-1-one], the melting point was in the range of 241 to 243 °C.

As to `CN1CC=C(c2c[nH]c3ccc(-c4cnc5[nH]cc(C(=O)C(C)(C)C)c5n4)cc23)CC1` [Compound I-50, 2,2-Dimethyl-1-{2-[3-(1-methyl-1,2,3,6-tetrahydro-pyridin-4-yl)-1H-indol-5-yl]-5H-pyrrolo[2,3-b]pyrazin-7-yl}-propan-1-one], the melting point fell in the range of 263 to 265 °C.

With `CC(C)(C)C(=O)c1c[nH]c2ncc(-c3cc(N4CCCC4)ccn3)nc12` [Example 6, 2,2-Dimethyl-1-[2-(4-pyrrolidin-1-yl-pyridin-2-yl)-5H-pyrrolo[2,3-b]pyrazin-7-yl]-propan-1-one], the melting point was in the range of 260 to 263 °C.

Regarding `CC(C)(C)C(=O)c1c[nH]c2ncc(-c3ccccn3)nc12` [Example 8, 2,2-Dimethyl-1-(2-pyridin-2-yl-5H-pyrrolo[2,3-b]pyrazin-7-yl)-propan-1-one], the melting point fell in the range of 276 to 278 °C.

`CCc1cccc(-c2cnc3[nH]cc(C(=O)C(C)(C)C)c3n2)c1` [Example 9, 1-[2-(3-Ethyl-phenyl)-5H-pyrrolo[2,3-b]pyrazin-7-yl]-2,2-dimethyl-propan-1-one] gave a melting point of 199 to 200.1 °C.

The target of a further data set is JAK3 (recombinant human kinase domain) (Homo sapiens, UniProt P52333). The data set can be described thus: Determination of IC50 of Janus Kinase (JAK) inhibition, radioactive end-point 33P-ATP assay, JAK3. The format is biochemical. The conditions noted are these: ATP 1.5 uM, peptide 50 uM, 20 minutes, room temperature, read-out: IC50 h-jak3-sf21-c. From the text: Determination of IC50 of Janus Kinase (JAK) Inhibition: […]
JAK3 (recombinant human kinase domain), sequence (P52333 822-1111 limits assumed): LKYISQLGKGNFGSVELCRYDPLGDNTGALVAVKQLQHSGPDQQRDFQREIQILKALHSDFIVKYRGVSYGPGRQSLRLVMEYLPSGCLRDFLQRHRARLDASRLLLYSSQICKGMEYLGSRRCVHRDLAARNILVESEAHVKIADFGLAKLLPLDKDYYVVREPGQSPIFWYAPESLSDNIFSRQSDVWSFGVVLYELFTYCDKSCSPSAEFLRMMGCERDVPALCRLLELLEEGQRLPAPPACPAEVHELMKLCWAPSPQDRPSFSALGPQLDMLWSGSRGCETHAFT
As for `CC(C)(C)C(=O)c1c[nH]c2ncc(-c3ccc4c(ccn4Cc4ccncc4)c3)nc12` [Compound I-49, 2,2-Dimethyl-1-[2-(1-pyridin-4-ylmethyl-1H-indol-5-yl)-5H-pyrrolo[2,3-b]pyrazin-7-yl]-propan-1-one], the 50% inhibitory concentration (IC50) amounted to 152 nM.

As to `CN1CC=C(c2c[nH]c3ccc(-c4cnc5[nH]cc(C(=O)C(C)(C)C)c5n4)cc23)CC1` [Compound I-50, 2,2-Dimethyl-1-{2-[3-(1-methyl-1,2,3,6-tetrahydro-pyridin-4-yl)-1H-indol-5-yl]-5H-pyrrolo[2,3-b]pyrazin-7-yl}-propan-1-one], the IC50 worked out at 155 nM.

Take `CC1(C(=O)c2c[nH]c3ncc(-c4ccc5[nH]ccc5c4)nc23)CCCCC1` [Compound I-52, [2-(1H-Indol-5-yl)-5H-pyrrolo[2,3-b]pyrazin-7-yl]-(1-methyl-cyclohexyl)-methanone]: the IC50 worked out at 32.4 nM.

For `CN(c1cc(-c2cnc3[nH]cc(C(=O)C(C)(C)C)c3n2)cc2[nH]ccc12)S(=O)(=O)c1ccc(N)cc1` [Compound I-54, 4-Amino-N-{6-[7-(2,2-dimethyl-propionyl)-5H-pyrrolo[2,3-b]pyrazin-2-yl]-1H-indol-4-yl}-N-methyl-benzenesulfonamide], the IC50 came to 158 nM.
